Data: ChEMBL document CHEMBL3124873, “cis-1-Oxo-heterocyclyl-4-amido cyclohexane derivatives as NPY5 receptor antagonists” (Bioorg Med Chem Lett, 2014)
≈ marks a conversion by molar mass, not a printed value.

Columns and labels:
[1] = target: T1, Neuropeptide Y receptor type 5 (Homo sapiens, UniProt Q15761); experiment: Displacement of [125I]PYY from human NPY5 receptor transfected in LM(tk-) cell membranes after 120 mins by solid scintillation counting
T1 sequence (Q15761 whole entry): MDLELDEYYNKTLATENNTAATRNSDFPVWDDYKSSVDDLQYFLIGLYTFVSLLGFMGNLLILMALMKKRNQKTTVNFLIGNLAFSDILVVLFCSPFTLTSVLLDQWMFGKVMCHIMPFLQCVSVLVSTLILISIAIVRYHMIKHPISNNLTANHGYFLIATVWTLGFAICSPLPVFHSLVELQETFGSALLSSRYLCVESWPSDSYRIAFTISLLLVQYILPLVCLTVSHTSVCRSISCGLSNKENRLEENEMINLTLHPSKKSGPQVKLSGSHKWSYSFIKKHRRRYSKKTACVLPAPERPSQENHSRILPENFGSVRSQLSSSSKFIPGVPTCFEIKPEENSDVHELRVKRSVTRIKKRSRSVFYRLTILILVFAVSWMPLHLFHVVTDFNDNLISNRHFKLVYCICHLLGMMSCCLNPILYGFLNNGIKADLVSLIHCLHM

Liver microsome [2] = experiment: Intrinsic clearance in human pooled liver microsomes at 1 uM by LC/MS analysis; assay type: ADME
[3] = Solubility of the compound at pH 7.4 by classic shake flask method; assay type: physicochemical; details: buffer
[4] = Ratio of drug level in brain to plasma in femoral artery cannulated Sprague-Dawley rat at 10 mg/kg, po after 1 hr by LC/MS/MS analysis; assay type: ADME, organism-based; design: dose 10 mg/kg, route oral; details: read-out: BPR
[5] = Plasma concentration in femoral artery cannulated Sprague-Dawley rat at 10 mg/kg, po after 1 hr by LC/MS/MS analysis; assay type: ADME, organism-based; design: dose 10 mg/kg, route oral
[6] = Drug uptake in femoral artery cannulated Sprague-Dawley rat brain at 10 mg/kg, po after 1 hr by LC/MS/MS analysis; assay type: ADME, organism-based; design: dose 10 mg/kg, route oral; details: read-out: Drug uptake
Liver microsome [7] = experiment: Intrinsic clearance in rat pooled liver microsomes at 1 uM by LC/MS analysis; assay type: ADME
Rattus norvegicus = experiment: AUC (0 to infinity) in Sprague-Dawley rat at 2 mg/kg, po by LC/MS analysis; assay type: ADME, organism-based, Plasma; design: time infinity, dose 2 mg/kg, route oral; details: in vivo
[8] = Oral bioavailability in Sprague-Dawley rat at 2 mg/kg by LC/MS analysis; assay type: ADME, organism-based; details: in vivo
[9] = Volume of distribution at steady state in Sprague-Dawley rat at 1 mg/kg, iv and 2 mg/kg, po by LC/MS analysis; assay type: ADME, organism-based; details: in vivo, read-out: Vdss
[10] = Half life in Sprague-Dawley rat at 1 mg/kg, iv and 2 mg/kg, po by LC/MS analysis; assay type: ADME, organism-based; details: in vivo
[11] = Clearance in Sprague-Dawley rat at 1 mg/kg, iv and 2 mg/kg, po by LC/MS analysis; assay type: ADME, organism-based; details: in vivo

SMILES | Ki [1] [nM] | CLH (Liver microsome [2]) [L/min] | solubility thermodynamic [3] [µg/mL] | Kp at 1 h [4] | concentration at 1 h [5] [nM] | concentration at 1 h [6] [nM] | CLH (Liver microsome [7]) [mL/min] | AUC (Rattus norvegicus) [ng·h/mL] | bioavailability [8] [%] | Vd [9] [L/kg] | half-life [10] [h] | clearance [11] [mL/min/kg]
CN(c1ccc(-c2cc(F)cc(F)c2)cn1)C(=O)[C@H]1CC[C@@H](N2CCCC2=O)CC1 | > 10000 |  |  |  |  |  |  |  |  |  |  | 
O=C1CCCN1[C@H]1CC[C@@H](C(=O)Nc2ncc(-c3cc(F)cc(F)c3)cn2)CC1 | 5 | 0.7 | 38 (≈ 94.9 µM) | 0.14 | 2800 | 380 | 31 |  |  |  |  | 
O=C1CCCN1[C@H]1CC[C@@H](C(=O)Nc2cnc(-c3cc(F)cc(F)c3)cn2)CC1 | 6 | 0.9 |  |  |  |  | 9.5 |  |  |  |  | 
O=C1CCCCN1[C@H]1CC[C@@H](C(=O)Nc2ccc(-c3cc(F)cc(F)c3)cn2)CC1 | 2 |  |  |  |  |  |  |  |  |  |  | 
O=C1OCCN1[C@H]1CC[C@@H](C(=O)Nc2ccc(-c3cc(F)cc(F)c3)cn2)CC1 |  | 0.4 | 4 (≈ 9.96 µM) | 0.5 | 3000 | 1500 | 9.5 | 2000 | 83 | 3.4 | 2.8 | 14.2
C[C@@H]1CN([C@H]2CC[C@@H](C(=O)Nc3ccc(-c4cc(F)cc(F)c4)cn3)CC2)C(=O)O1 | 3 | 0.9 |  |  |  |  | 7 |  |  |  |  | 
C[C@H]1CN([C@H]2CC[C@@H](C(=O)Nc3ccc(-c4cc(F)cc(F)c4)cn3)CC2)C(=O)O1 | 7 | 1.1 |  |  |  |  | 15 |  |  |  |  | 
O=C1NCCN1[C@H]1CC[C@@H](C(=O)Nc2ccc(-c3cc(F)cc(F)c3)cn2)CC1 | 5 | 1.7 | 4.5 (≈ 11.2 µM) | 0.2 | 6800 | 1400 | 37 |  |  |  |  | 
CN1CCN([C@H]2CC[C@@H](C(=O)Nc3ccc(-c4cc(F)cc(F)c4)cn3)CC2)C1=O | 5 | 0.8 | 1.1 (≈ 2.65 µM) | 0.6 | 5000 | 3100 | 8.8 | 4100 | 110 | 2.8 | 3.5 | 9.5
O=C1NCCCN1[C@H]1CC[C@@H](C(=O)Nc2ccc(-c3cc(F)cc(F)c3)cn2)CC1 |  | 1.1 | 1.3 (≈ 3.14 µM) |  |  |  | 18 |  |  |  |  | 
CN1CCCN([C@H]2CC[C@@H](C(=O)Nc3ccc(-c4cc(F)cc(F)c4)cn3)CC2)C1=O |  | 1.1 | 5.4 (≈ 12.6 µM) |  |  |  | 19 |  |  |  |  | 
CCN1CCN([C@H]2CC[C@@H](C(=O)Nc3ccc(-c4cc(F)cc(F)c4)cn3)CC2)C1=O | 10 | 1.6 | 1.6 (≈ 3.73 µM) |  |  |  | 17 |  |  |  |  | 
CC(C)N1CCN([C@H]2CC[C@@H](C(=O)Nc3ccc(-c4cc(F)cc(F)c4)cn3)CC2)C1=O | 41 |  |  |  |  |  |  |  |  |  |  | 
O=C1N(C2CC2)CCN1[C@H]1CC[C@@H](C(=O)Nc2ccc(-c3cc(F)cc(F)c3)cn2)CC1 | 9 | 1 |  |  |  |  | 8.4 |  |  |  |  | 
O=C1CCCN1[C@H]1CC[C@@H](C(=O)Nc2ccc(-c3cc(F)cc(F)c3)cn2)CC1 | 8 | 1 | 0.7 (≈ 1.75 µM) | 1 | 2800 | 2800 | 12 | 4300 | 110 | 3.2 | 4.4 | 8.67
CC(C)(C)C1CN([C@H]2CC[C@@H](C(=O)Nc3ccc(-c4cc(F)cc(F)c4)cn3)CC2)C(=O)O1 (mixture of isomers) | 4 | 3.9 |  |  |  |  | 25 |  |  |  |  | 
